Measured values taken from patent US11827690B2, “ApoC-II mimetic peptides” (THE UNITED STATES OF AMERICA, as represented by the …, priority 2017, dated 2023).

Experiments:
[1] = test system: chylomicrons isolated from human plasma; experiment: ApoC-III displacement study in chylomicrons isolated from human plasma; format: binding
Description: VLDL or chylomicrons isolated from human plasma were incubated with an apoC-II mimetic peptide for 1 hour at 37° C. and washed 3 times with PBS using spin filter with 100 kDa cutoff membrane. Supernatants were brought to the original volume with PBS and loaded to 4-12% Bis-TRIS SDS PAGE gel. ApoC-I, apoC-II, apoC-III, and apoE bands were identified by their corresponding size.

[2] = target: T1, bovine LPL (Bos taurus, UniProt P11151); experiment: in vitro LPL assay using hypertriglyceridemia patient sera as substrate; format: biochemical; conditions: patient sera TG about 1000 mg/dL to about 1700 mg/dL, FIGS. 15A-D
T1 sequence (P11151 29-478): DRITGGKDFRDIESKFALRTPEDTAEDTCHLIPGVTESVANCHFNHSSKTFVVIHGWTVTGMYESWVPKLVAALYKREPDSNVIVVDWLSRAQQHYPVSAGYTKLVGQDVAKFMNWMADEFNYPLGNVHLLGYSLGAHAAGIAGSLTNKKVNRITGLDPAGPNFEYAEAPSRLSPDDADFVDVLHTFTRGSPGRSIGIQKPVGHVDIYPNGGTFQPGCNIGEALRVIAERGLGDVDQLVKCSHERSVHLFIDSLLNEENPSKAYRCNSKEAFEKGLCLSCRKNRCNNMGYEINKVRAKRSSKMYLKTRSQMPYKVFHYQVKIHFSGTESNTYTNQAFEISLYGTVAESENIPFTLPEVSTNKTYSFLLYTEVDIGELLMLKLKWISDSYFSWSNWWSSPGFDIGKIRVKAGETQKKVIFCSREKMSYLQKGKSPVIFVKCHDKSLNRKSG
Method in brief: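 Bovine LPL (diluted stock) added to Intralipid or human or mouse plasma with BSA and peptides in triplicate, held 30 min on ice, then incubated 1 hour at 37° C. Released free fatty acids measured by colorimetric NEFA assay at 550/660 nm against an oleic acid standard.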

[3] = test system: apoC-II knockout mice; experiment: serum TG of apoC-II knockout mice after Intralipid injection; format: in vivo; conditions: peptide IP 1 hour after Intralipid, 5 and 10 μmole/kg, FIG. 37B
Description: C57Bl/6 mice (wild-type), apoC-II knockout (apoC-II KO) mice, and apoC-III transgenic mice were used for in vivo study. The C57Bl/6 mice (wild-type) were purchased from Taconic Biosciences Inc. The apoC-II KO mice were created as described in Sakurai et al., J Pharmacol Exp Ther 356:341-353, 2016. The apoC-III transgenic mice were generated by overexpressing human apoC-III in C57Bl/6 mice. See Qu et al., J. Lipid Res. 48:1476-1487, 2007.
Mice were fasted overnight (approximately 12 hours) before the study and 6 hours during the study, the next day. The apoC-II mimetic peptides were synthetically produced and free of biological contamination (not available as FDA approved compounds/treatment). Peptides were produced and used in sterile conditions and filtered by 0.2 nm filter before injections in a single dose 1-10 μmol/kg body weight (B. W.) administered either subcutaneous injection (S.Q. or S.C.), intraperitoneal injection (I.P.) or intravenous injection (I.V.) (in a sterile, pharmaceutical grade PBS solution at a volume ≤200 μL) as described in Sakurai et al., J Pharmacol Exp Ther 356:341-353, 2016. […]

[4] = test system: obese monkeys with a plasma TG level of greater than 2 mmol/L; experiment: in vivo studies in the obese monkey model
Description: Monkeys with a TG level greater than 2 mmol/L were selected, trained and assigned into 3 groups (control, 1 mg/kg Delta6PV, and 5 mg/kg Delta6PV). The desired dose was injected intravenously into the animals at 0 h time point. The monkeys were monitored over the course of 72 hours and blood samples at different time points were collected for biomarker analysis.

Row | Sequence | affinity for chylomicrons compared with the apolipoproteins [1] | LPL activation [2] | serum TG increase after Intralipid injection [3] | dose dependence of effect ([4]; 1 and 5 mg/kg intravenous) | VLDL level ([4]; FIG. 48A) | LDL level ([4]; FIG. 48B) | HDL level ([4]; FIG. 48C) | plasma TG level ([4]; single intravenous injection, 1 and 5 mg/kg, 24 h, 48 h, and 72 h after the injection)
1 | DWLKAFYDKVAEKLKEAFPAMSTYTGIFTDQVLSVLKGEE (listed as Homo sapiens) [apoC-II-a, excluded from the claimed peptides] | higher affinity for chylomicrons than the apolipoproteins | – | – | – | – | – | – | –
2 | DYLKEVFEKLRDLYEKFTPAVSTYTGIFTDQVLSVLKGEE [Delta6PV] | – | activated LPL in vitro | the TG increase was significantly reduced | dose-dependent | marked reduction of the VLDL level | did not change significantly | did not change significantly | significant reduction of plasma TG level
